Data published in ChEMBL document CHEMBL1201862, “PubChem BioAssay data set” (2004).
Active and inactive are the calls of the source.

What was measured:
[1] = target: Induced myeloid leukemia cell differentiation protein Mcl-1 (Homo sapiens, UniProt Q07820); type: functional
[2] = target: Heat shock protein HSP 90-alpha (Homo sapiens, UniProt P07900); type: functional, organism-based
[3] = cytotoxicity in HEK-293T cells, dose response, cytotoxicity control for TCR NF-kB inhibitor project, luminescence, T-cell screen hits (AID 489026); type: functional, cell-based;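 also: cells exposed to compound about 14 hours before the viability readout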
[4] = target: T1, Mannose-6-phosphate isomerase (Homo sapiens, UniProt P34949); experiment: human PMI inhibitors, high substrate, primary screen, biochemical, fluorescence intensity, high mannose 6-phosphate (AID 1220)
T1 sequence (P34949 whole entry): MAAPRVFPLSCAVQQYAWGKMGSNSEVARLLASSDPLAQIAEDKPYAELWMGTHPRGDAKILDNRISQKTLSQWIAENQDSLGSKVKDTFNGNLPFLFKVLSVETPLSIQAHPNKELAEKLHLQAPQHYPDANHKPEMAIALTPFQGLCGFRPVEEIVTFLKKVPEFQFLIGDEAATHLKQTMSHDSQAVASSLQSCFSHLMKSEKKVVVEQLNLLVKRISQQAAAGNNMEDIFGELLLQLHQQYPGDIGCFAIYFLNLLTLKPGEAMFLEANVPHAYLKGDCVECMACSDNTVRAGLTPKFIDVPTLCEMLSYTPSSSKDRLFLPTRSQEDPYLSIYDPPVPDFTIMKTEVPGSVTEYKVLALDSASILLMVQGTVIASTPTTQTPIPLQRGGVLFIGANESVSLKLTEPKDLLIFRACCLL

[5] = target: T2, Microphthalmia-associated transcription factor (Homo sapiens, UniProt O75030); experiment: TRPM1 promoter luciferase signal decrease, dose response, MITF inhibitor project, cell-based, SK-MEL-5, cherry-picked, set 3 (AID 493073); type: functional
T2 sequence (O75030 whole entry): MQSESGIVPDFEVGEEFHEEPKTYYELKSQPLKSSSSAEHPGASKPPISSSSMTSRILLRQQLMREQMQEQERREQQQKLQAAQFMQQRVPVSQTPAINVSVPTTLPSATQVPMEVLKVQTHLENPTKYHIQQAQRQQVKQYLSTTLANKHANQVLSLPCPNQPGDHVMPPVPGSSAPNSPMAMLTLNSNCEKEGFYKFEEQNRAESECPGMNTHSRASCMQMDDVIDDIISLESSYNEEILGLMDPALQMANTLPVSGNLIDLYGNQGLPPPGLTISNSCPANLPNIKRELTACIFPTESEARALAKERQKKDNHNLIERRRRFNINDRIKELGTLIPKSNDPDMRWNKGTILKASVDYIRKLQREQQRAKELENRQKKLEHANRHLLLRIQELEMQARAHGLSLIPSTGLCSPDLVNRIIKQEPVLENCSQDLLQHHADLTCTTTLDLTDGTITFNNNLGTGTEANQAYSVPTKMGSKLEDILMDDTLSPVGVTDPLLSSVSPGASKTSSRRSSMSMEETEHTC

[6] = target: Large T antigen (Simian virus 40, UniProt P03070); type: functional, Betapolyomavirus macacae;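 also: Confirmatory-stage PubChem screen for compounds that inhibit SV40 T antigen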
[7] = growth suppression of beta-catenin-knockout colon cells, dose response, cell-based, HCT116, human colon tumor (AID 1045); type: functional;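 also: HCT116 colon tumor cells with beta catenin knocked out; cells exposed to compound for 60 hours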
[8] = growth suppression of PTEN-null colon cells, dose response, cell-based, HCT116 PTEN knockout (AID 1047); type: functional;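 also: HCT116 colon tumor cells with PTEN knocked out; cells exposed to compound for 60 hours before readout; potency for loss of cell viability measured by luminescence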
[9] = target: Cytochrome P450 3A4 (Homo sapiens, UniProt P08684);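 also: CYP3A4 tested as one member of a cytochrome P450 panel screen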
[10] = target: Luciferin 4-monooxygenase (Photinus pyralis, UniProt P08659); experiment: firefly luciferase enzyme inhibitors, dose response, biochemical, luminescence (AID 1891)
[11] = Luminescence Cell-Based Dose Confirmation HTS to Identify Inhibitors of Platelet Dense Granule Release. [Related pubchem assays: 1663 (Primary HTS), 1678 (Summary of Project)]; type: functional
[12] = cells; type: functional
[13] = tested on: Vero; experiment: cells; type: functional; settings: Chlorocebus sabaeus
[14] = THP-1 cell cytotoxicity, dose response, cytotoxicity control for non-replicating M. tuberculosis project (AID 489025); type: functional
[15] = Vero E6 cell cytotoxicity, dose response, cytotoxicity control for non-replicating M. tuberculosis project, secondary assay (AID 492998); type: functional, VeroE6; settings: Vero C1008
[16] = target: Nonstructural protein 1 (Influenza A virus, UniProt Q194T2); type: functional, Influenza A virus (A/California/07/2009(H1N1))
[17] = tested on: INS1; experiment: beta cell apoptosis inhibitors, cytokine rescue, dose response, luminescence, retest (AID 449756); type: functional, cell-based; settings: Rattus norvegicus;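 also: cell death triggered by IL-1 beta plus TNF-alpha plus IFN-gamma mixture; protective hits raise ATP signal compared with cytokine alone wells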
[18] = Luminescence Cell-Based Dose Retest to Confirm Inhibitors of Cancer Stem Cells. [Related pubchem assays (depositor defined):AID2717, AID2721]; type: functional; settings: Homo sapiens
[19] = C. albicans growth with fluconazole, confirmation, fluorescence, retest (AID 2467); type: functional, cell-based
[20] = NIH-3T3 fibroblast cytotoxicity, dose response, cytotoxicity control, cell-based, fluorescence, Alamar Blue, secondary assay (AID 2327); type: functional;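 also: NIH-3T3 mouse fibroblasts cultured with fluconazole at 8 µg/mL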
[21] = P. falciparum 3D7-ScDHODH growth inhibitors, dose response, SYBR Green, dry powder samples (AID 1159570); type: functional, cell-based;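 also: parasite growth measured after 72 hours of compound exposure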
[22] = P. falciparum Dd2 growth inhibitors, dose response, SYBR Green, dry powder samples (AID 1159566); type: functional, cell-based;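 also: potency for growth inhibition with lower SYBR green DNA signal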
[23] = P. falciparum ATP4 D1247Y mutant growth inhibitors, dose response, NITD609-resistant line, SYBR Green, dry powder (AID 1159571); type: functional, cell-based;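 also: parasites synchronized at ring stage by sorbitol before testing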
[24] = P. falciparum Dd2 growth inhibitors, dose response, SYBR Green, cherry-picked samples (AID 1159567); type: functional, cell-based

Sequence of Induced myeloid leukemia cell differentiation protein Mcl-1 (Q07820 whole entry): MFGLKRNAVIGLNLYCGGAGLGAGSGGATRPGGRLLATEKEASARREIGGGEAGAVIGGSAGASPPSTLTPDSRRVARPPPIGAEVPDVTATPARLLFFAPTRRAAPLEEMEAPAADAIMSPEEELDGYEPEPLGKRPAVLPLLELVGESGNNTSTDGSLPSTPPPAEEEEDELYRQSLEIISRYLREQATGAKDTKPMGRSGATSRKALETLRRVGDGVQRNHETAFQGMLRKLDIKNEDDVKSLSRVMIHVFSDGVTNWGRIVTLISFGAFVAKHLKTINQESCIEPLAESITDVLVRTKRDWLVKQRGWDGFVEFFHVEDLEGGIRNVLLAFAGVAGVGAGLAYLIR
Sequence of Luciferin 4-monooxygenase (P08659 whole entry): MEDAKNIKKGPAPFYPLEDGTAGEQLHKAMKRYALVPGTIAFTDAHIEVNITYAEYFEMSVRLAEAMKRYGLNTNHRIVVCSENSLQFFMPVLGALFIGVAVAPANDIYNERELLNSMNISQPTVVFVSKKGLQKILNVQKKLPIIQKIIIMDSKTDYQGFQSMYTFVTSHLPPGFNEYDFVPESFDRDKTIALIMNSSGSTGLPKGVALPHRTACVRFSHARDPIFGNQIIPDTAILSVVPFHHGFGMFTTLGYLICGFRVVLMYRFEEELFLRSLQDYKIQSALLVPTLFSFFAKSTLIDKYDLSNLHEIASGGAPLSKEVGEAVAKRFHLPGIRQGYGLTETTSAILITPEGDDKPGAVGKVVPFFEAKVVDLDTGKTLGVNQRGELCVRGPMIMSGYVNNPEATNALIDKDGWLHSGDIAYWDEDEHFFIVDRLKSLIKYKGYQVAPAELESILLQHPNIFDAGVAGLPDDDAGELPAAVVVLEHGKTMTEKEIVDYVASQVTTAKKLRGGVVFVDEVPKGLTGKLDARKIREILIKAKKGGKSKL
Sequence of Large T antigen (P03070 whole entry): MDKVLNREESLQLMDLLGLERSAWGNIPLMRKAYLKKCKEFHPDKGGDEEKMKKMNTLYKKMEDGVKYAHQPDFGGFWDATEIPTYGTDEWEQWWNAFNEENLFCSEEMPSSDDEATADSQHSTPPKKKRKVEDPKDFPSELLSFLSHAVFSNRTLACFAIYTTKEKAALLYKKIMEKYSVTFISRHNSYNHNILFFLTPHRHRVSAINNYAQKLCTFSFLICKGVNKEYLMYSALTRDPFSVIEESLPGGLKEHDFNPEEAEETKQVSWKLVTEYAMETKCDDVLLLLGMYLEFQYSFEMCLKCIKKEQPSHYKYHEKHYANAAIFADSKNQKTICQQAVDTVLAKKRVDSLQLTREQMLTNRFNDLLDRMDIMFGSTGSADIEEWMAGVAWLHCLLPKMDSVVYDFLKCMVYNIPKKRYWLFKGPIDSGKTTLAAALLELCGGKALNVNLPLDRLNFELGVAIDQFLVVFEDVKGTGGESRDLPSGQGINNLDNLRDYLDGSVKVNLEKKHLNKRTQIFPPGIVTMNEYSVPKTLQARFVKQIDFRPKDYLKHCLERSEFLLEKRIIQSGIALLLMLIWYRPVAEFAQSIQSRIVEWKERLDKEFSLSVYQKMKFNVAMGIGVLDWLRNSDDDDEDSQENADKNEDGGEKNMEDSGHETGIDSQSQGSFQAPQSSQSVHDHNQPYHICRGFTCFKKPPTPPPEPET
Sequence of Nonstructural protein 1 (Q194T2 whole entry): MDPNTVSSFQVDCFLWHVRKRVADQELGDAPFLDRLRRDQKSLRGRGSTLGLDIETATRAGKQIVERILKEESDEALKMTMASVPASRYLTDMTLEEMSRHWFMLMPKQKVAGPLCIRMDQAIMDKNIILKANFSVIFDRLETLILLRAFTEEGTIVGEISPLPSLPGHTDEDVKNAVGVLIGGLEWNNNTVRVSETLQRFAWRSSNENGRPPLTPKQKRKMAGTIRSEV
Sequence of Cytochrome P450 3A4 (P08684 whole entry): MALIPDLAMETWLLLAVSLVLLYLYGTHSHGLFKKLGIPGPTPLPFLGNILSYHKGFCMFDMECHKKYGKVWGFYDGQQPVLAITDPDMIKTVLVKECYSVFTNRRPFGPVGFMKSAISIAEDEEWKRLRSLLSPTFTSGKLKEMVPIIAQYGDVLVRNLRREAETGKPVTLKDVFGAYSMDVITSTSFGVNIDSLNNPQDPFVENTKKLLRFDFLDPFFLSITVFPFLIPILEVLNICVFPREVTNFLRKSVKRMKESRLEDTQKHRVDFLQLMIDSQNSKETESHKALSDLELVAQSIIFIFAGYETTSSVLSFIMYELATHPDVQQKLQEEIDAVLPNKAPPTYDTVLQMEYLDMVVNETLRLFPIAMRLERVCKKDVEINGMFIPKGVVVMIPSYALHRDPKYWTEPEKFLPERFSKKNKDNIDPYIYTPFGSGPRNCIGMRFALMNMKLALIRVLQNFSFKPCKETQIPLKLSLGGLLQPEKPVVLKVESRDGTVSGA

Cc1c(NS(=O)(=O)c2cc(NC(=O)CCN3CCCC(C)C3)ccc2Cl)c(=O)n(-c2ccccc2)n1C (stereo not given)
IC50 [1]: 4.67 µM (not active)

C[C@@]12C(=O)Nc3ccc(Cl)cc3C(=O)N1[C@H]1c3ccccc3OC[C@@H]1[C@@H]2c1ccccc1
AC50 [2]: 0.611 µM (active)

COc1ccc(C(=O)N(C)Cc2cnn(Cc3ccccc3)c2)cc1S(=O)(=O)N1CCOCC1
IC50 [3]: > 80 µM (inactive)

CCCOc1ccc(N2C(=O)CC(N3CCC(C(=O)OCC)CC3)C2=O)cc1 (stereo not given)
AC50 [2]: 3.1 µM (active)

Cc1ccc(NC(=S)Nc2cccc3cnccc23)cc1
IC50 [4]: > 50 µM (not active)

COc1ccc(N(C)C(=S)Nc2ccc3nc(C)c(C)nc3c2)cc1
IC50 [4]: > 50 µM (not active)

COc1cc(/C=C/c2nc3ccccc3c(=O)n2-c2cccc(O)c2)ccc1O
IC50 [1]: 8.49 µM (active)

COc1ccccc1C(=O)NNC(=S)NC(=O)c1ccco1
AC50 [2]: 1.42 µM (active)

C=CCN1C(=O)/C(=C/c2cc(C)n(-c3cccnc3)c2C)C(=O)NC1=S
AC50 [5]: 16.8 µM (active) | IC50 [6]: 66.7 µM (active) | EC50 [7]: 53.3 µM (active) | IC50 [4]: > 50 µM (not active) | EC50 [8]: 89.5 µM (active)

Cc1cnc(CNc2cc(-c3ccccc3C)ncn2)cn1
AC50 [9]: inconclusive

COc1cc2c(cc1OC)C1=C(C#N)CN(CC(=O)O)CN1CC2
EC50 [10]: > 112 µM (not active) | IC50 [4]: 34.1 µM (active) | EC50 [11]: > 112 µM (not active)

Cc1cccc(-c2csc(N)c2C(=O)OC(C)C)c1
IC50 [4]: > 50 µM (not active)

O=C(Nc1ccccn1)c1ccc([N+](=O)[O-])o1
IC50 [12]: 13.6 µM (active) | CC50 [13]: > 25 µM (active) | CC50 [14]: 26.3 µM (active) | CC50 [15]: 13.4 µM (active)

C/C(=N\NC(=O)c1cc(C)nc2ccccc12)c1ccccn1
IC50 [16]: 2.23 µM (active) | AC50 [17]: 0.626 µM (active) | AC50 [18]: 3.37 µM (active) | IC50 [3]: > 80 µM (inactive)

O=C(N/N=C/c1ccc(O)c(O)c1)/C(O)=C\C1=NC2(CCCC2)Cc2ccccc21
IC50 [1]: 3.56 µM (active)

O=C(N/N=C\c1ccc([N+](=O)[O-])s1)c1cncc(Br)c1
IC50 [12]: 12.6 µM (active) | AC50 [5]: 4.34 µM (active) | CC50 [14]: 5.8 µM (active) | AC50 [17]: 7.04 µM (active) | EC50 [7]: 0.452 µM (active) | EC50 [8]: 1.09 µM (active) | EC50 [19]: 4.15 µM (active) | EC50 [20]: 29.4 µM (active) | CC50 [15]: 4.83 µM (active)

CC1(C)CC(=O)C(=CNc2cccc(/N=C/C3=C(O)CC(C)(C)CC3=O)n2)C(=O)C1
IC50 [1]: 1.31 µM (not active)

CC(/C=N\Nc1n[nH]c2c3cccc(C)c3nc-2n1)=C\c1ccco1
IC50 [1]: 3.46 µM (active)

C[C@@H]1CN([C@@H](C)CO)C(=O)c2cccc(NC(=O)c3nc4ccccc4s3)c2O[C@H]1CN(C)C(=O)Nc1cccc2ccccc12
AC50 [21]: 0.595 µM (active) | AC50 [22]: 0.766 µM (active) | AC50 [23]: 0.802 µM (active)

COc1ccc(-c2ccc([C@H]3[C@H](C#N)N(C(=O)c4cccc(F)c4)[C@H]3CO)cc2)cc1
AC50 [21]: 2.24 µM (active) | AC50 [24]: 2.71 µM (active) | AC50 [22]: 1.85 µM (active) | AC50 [23]: 2 µM (active)
